For one series, the system named is Drosophila. As to the kind of experiment: Rotenone-induced toxicity, Drosophila model of sporadic Parkinson's disease. The series is classed as in vivo. The source says: FIGS. 26A-26C illustrate the effect of compound BX in another Parkinson's disease model. Chronic infusion of rotenone to fruit flies reproduces many features of Parkinson disease. Rotenone is a pesticide that inhibits mitochondrial complex I activity, thus creating an environment of oxidative stress in the cell. Many studies have employed rotenone to generate an experimental animal model of Parkinson's disease (PD) that mimics and elicits PD-like symptoms, such as motor and cognitive decline. […] Compound BX therefore protects Drosophila from the neurotoxic effects of rotenone and may prevent oxidative stress in dopaminergic neurons.

The test system of series [1] is identified target proteins. As to the kind of experiment: Protein profiling using Mass spectrometry after compound BX treatment. Particulars: protein amount, preliminary. The source says:
The data presented below in Tables 10-12 illustrate various studies aimed at identifying the targets that compound BX acts upon. Table 10 illustrates preliminary protein profiling data using Mass spectrometry to identify up/down-regulation by compound BX treatment among numerous identified target proteins. In the results shown in Table 10, superoxide dismutase (SOD) protein amount is increased almost two-fold. This is a significant increase in SOD. SOD protein, which is an enzyme that alternately catalyzes the dismutation (or partitioning) of the superoxide (O2^−) radical into either ordinary molecular oxygen (O2) or hydrogen peroxide (H2O2), is strongly associated with amyotrophic lateral sclerosis (ALS). Mutations in the first SOD enzyme (SOD1) can cause familial ALS. Onset of ALS is strongly associated with oxidative stress in the neural tissue of affected individuals.

Series [2] relates to mRNA levels of potential targets. Kind of series: PCR array using real-time PCR (mRNA levels). The conditions noted are these: mRNA level. From the text: Tables 11 and 12 illustrate PCR array data using real-time PCR to track mRNA levels for various potential targets of compound BX.
The subject of series [3] is rats. As to the kind of experiment: MES test, rats p.o. The series is classed as in vivo. The conditions noted are these: Rattus norvegicus, po.
The test system of the next series is C3A hepatocyte cells. Kind of series: ACTIVTox LDH release assay. The series is classed as cell-based. On the procedure:
Compounds A, I, H, and F were tested by Stem Cell Innovations, Inc. (Houston, TX) in their ACTIVTox® Human Liver Cell-based assays (using C3A hepatocyte cells). Specifically, the compounds were tested in the LDH release assay, which determines the release of Lactate DeHydrogenase (an indicator of cell death) at various concentrations of test compound.
A concentration of 100 µM of test compound is a much higher level of exposure to liver cells than would ever be expected under physiological conditions. Therefore, using 100 μM as a standard test concentration (for comparative purposes), the ratio of the absorbance (which measures the level of LDH release) resulting from the presence of the test compound versus the negative control is a value known as the “average (or mean) fold control” (Average Fold Control=Average of Absorbance/Average of Negative Control).

The next series deals with CYP-450 2A6 (Homo sapiens, UniProt P11509). Kind of series: In vitro human CYP-450 study, 2A6. It counts as in vitro ADME. The conditions noted are these: human enzyme. From the text:
(§1) On the other hand, it is an inhibitor for 2C19, 2D6, 2A6 and 2C9.

A further series has as its target CYP-450 2E1 (Homo sapiens, UniProt P05181). As to the kind of experiment: In vitro human CYP-450 study, 2E1. The conditions noted are these: human enzyme. The series is classed as in vitro ADME.
Excerpt: as §1

For series [4], the system named is rats. Kind of series: Minimal motor impairment (MID50), rats p.o. The series is classed as in vivo.
The target of another series is CYP-450 2C19 (Homo sapiens, UniProt P33261). Kind of series: In vitro human CYP-450 study, 2C19. The series is classed as in vitro ADME. The conditions noted are these: human enzyme.
Sequence of CYP-450 2C19 (P33261 whole entry): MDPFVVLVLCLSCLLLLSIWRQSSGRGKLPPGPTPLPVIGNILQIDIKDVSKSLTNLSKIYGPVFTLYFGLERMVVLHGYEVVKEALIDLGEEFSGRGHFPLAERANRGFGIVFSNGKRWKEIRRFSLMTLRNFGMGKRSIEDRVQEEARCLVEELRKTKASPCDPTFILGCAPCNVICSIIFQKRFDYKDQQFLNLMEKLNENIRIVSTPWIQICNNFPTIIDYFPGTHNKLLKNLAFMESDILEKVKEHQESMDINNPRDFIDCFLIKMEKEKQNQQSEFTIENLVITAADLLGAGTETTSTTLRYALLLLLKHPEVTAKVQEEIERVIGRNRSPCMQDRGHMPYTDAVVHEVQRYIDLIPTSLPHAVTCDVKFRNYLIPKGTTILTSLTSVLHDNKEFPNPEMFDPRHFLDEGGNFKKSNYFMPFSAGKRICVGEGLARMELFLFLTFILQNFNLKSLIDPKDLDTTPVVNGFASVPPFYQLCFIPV
Excerpt: as §1

In series [5] the test system is rats. As to the kind of experiment: s.c. MET test, rats p.o. The conditions noted are these: Rattus norvegicus, p.o. It counts as in vivo.
In a further series the test system is sodium channels. Kind of series: Electrophysiology, sodium currents. It counts as cell-based. Particulars: at 100 μM, ±S.E.M., 8 cells. From the text: (§2) The mechanisms of action of many currently marketed anticonvulsant drugs are not fully understood. Although numerous molecular targets exist wherein anticonvulsants may exert an effect, the final common pathway appears to be through modulation of voltage-gated and/or neurotransmitter-gated ion channels. Thus, the common link among the various proposed mechanisms involves the ability of an anticonvulsant to modulate ion channel function. Presently, a number of prototype anticonvulsants are thought to exert their action (at least in part) by reducing sustained, high-frequency repetitive firing of action potentials by modulating voltage-dependent sodium (Na+) channels. The effect of promising candidate substances on voltage-gated Na+ channels can be assessed using state-of-the-art electrophysiological techniques.
The effects of compound H (at a concentration of 100 μM) on sodium currents were evaluated in electrophysiological studies at holding potentials of −60 and −90 mV (using 8 cells). […] By way of comparison, the % of control inhibited for typical sodium-channel-blocking drugs such as phenytoin or lamotrigine is about 50%. […]

The subject of the next series is kainate (KA) receptors. As to the kind of experiment: Electrophysiology, kainate receptor currents. It counts as cell-based. The conditions noted are these: at 100 μM, holding potential −70 mV.
Excerpt: as §2

In the next series the test system is mice. Kind of series: Minimal motor impairment (MID50), mice i.p. Particulars: mice, i.p.

Molecules are shown by their SMILES. A value given as a limit tells only on which side of the number the result lay.

Sequence of CYP-450 2E1 (P05181 whole entry): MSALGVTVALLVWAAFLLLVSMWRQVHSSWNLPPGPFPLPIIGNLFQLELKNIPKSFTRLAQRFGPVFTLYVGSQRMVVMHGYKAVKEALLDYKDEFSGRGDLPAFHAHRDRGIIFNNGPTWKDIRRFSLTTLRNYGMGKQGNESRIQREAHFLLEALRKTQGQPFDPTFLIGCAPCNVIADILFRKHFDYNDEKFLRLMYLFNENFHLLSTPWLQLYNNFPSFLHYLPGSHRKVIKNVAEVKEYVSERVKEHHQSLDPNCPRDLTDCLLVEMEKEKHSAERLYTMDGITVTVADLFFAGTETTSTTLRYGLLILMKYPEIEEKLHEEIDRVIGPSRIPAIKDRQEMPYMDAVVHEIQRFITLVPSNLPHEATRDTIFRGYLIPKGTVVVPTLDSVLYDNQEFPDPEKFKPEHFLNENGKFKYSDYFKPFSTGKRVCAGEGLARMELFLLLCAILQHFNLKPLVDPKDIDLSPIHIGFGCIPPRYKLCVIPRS
Sequence of CYP-450 2A6 (P11509 whole entry): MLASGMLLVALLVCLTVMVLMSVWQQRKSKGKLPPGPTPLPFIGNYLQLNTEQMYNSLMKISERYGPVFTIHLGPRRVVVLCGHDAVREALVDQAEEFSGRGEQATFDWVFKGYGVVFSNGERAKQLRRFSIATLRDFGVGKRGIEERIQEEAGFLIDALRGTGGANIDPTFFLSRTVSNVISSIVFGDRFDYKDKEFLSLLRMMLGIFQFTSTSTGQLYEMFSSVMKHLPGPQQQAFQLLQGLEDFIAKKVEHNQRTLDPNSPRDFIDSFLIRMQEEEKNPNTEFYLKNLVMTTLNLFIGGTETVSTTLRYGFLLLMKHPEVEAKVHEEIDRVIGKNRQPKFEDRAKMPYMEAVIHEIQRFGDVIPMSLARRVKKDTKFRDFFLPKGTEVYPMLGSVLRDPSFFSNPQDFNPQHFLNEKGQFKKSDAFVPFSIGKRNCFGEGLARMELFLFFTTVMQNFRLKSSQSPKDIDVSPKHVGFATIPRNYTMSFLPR
Description for mice: The animal testing was performed according to methods known in the relevant art.

`C[C@H](CC(N)=O)c1ccc(OC(F)(F)F)cc1` (single isomer, unassigned) [Compound BX, R-(−)-3-(4-Trifluoromethoxy-phenyl)butyramide]: in the series with Drosophila (500 μM rotenone), the “survival of Drosophila exposed to rotenone” value is given as “enhances survival”. In the series with Drosophila (rotenone-treated Drosophila versus mock-treated controls), the “locomotion speed in rotenone-treated flies” value is “increases locomotion speed in rotenone-treated flies to a level virtually indistinguishable from mock-treated controls”. In addition, in [1], the “Compound Ratio, 14-3-3 Protein Gamma (P61983)” value is listed as 1.15; the “Compound Ratio, Elongation factor 1-alpha 1 (P62630)” value was found to be 0.59; the “Compound Ratio, Eukaryotic translation initiation factor 5A-1 (Q3T1J1)” value stood at 1.64; the “Compound Ratio, Glycine tRNA ligase (G3V7G8)” value worked out at 0.67. Also, in series [1], the “Compound Ratio, Heat Shock Protein HSP 90-alpha (P82995)” value was 0.77; the “Compound Ratio, Heat shock 70 kDA protein (F1LRV4)” value worked out at 0.73; the “Compound Ratio, Hypoxia up-regulated protein (Q63617)” value is 0.58; the “Compound Ratio, Malate Dehydrogenase (P04636)” value was 0.68. Also, in series [1], the “Compound Ratio, Proteasome subunit alpha type-2 (P17220)” value was found to be 0.35 and the “Compound Ratio, Superoxide dismutase [CU—Zn] (P07632)” value is 1.72. Moreover, in [2], the “Fold increase, Als2 (Amyotrophic lateral sclerosis 2 homolog)” value worked out at 109.36; the “Fold increase, Atp2b2 (ATPase, Ca++ transporting, plasma membrane 2)” value is reported as −5.85; the “Fold increase, Bdnf (Brain-derived neurotrophic factor)” value is on record as 2.58; the “Fold increase, Cat (Catalase)” value is reported as 82.03. In series [2], the “Fold increase, Gclc (Glutamate-cysteine ligase, catalytic subunit)” value stood at 5.79; the “Fold increase, Htr2a (5-HT (serotonin) receptor 2A)” value was −3.11; the “Fold increase, Ldha (Lactate dehydrogenase A)” value is −9.66; the “Fold increase, Ntrk2 (Neurotrophic tyrosine kinase, receptor, type 2)” value is recorded as −2.07. In addition, in series [2], the “Fold increase, P62630 (Aldehyde oxidase 1)” value amounted to 2.1; the “Fold increase, Prdx2 (Peroxiredoxin 2)” value was found to be 9.66; the “Fold increase, Psmb5 (Proteasome subunit, beta type 5)” value was determined as 3.02; the “Fold increase, Slc6a3 (Solute carrier family 6 (DAT), member 3)” value is recorded as −5.59. Besides, in series [2], the “Fold increase, Snca (Alpha-Synuclein)” value is −2.14; the “Fold increase, Syngr3 (Synaptogyrin 3)” value is given as 2.25; the “Fold increase, Syt1 (Synaptotagmin I)” value is 2.19; the “Fold increase, Ubb (Ubiquitin B)” value stood at 3.23. Further, in [2], the “Fold increase, Ube2k (Ubiquitin-conjugating enzyme E2K)” value is recorded as 2.98.

A word on the ED50: it is the dose that gives a 50% effect, or the effect in half of the subjects. A low value points to an effect at a small dose. With `CC(CC(N)=O)c1ccc(OC(F)(F)F)cc1` (racemic) [Compound H, 3-[4-(trifluoromethoxy)-phenyl]butyramide], the results for the median effective dose (ED50) in the series on rats [3] and with rats [5] were 56.7 mg/kg and 88.1 mg/kg, respectively. In the series with C3A hepatocyte cells (at 100 μM, C3A hepatocyte cells, value below 1.75 = no cyto- or hepatotoxic activity), the “LDH release, mean fold control” value was 1.32. The “cyto- or hepatotoxicity, ACTIVTox data” value in the series with C3A hepatocyte cells (at physiologically relevant concentrations (i.e., <100 µM)) is “not cyto- or hepatotoxic”. The “inhibition of CYP-450 2A6” value against CYP-450 2A6 is given as “inhibitor”. For the same molecule, the “inhibition of CYP-450 2E1” value against CYP-450 2E1 is “either no or only a remote possibility of inhibiting”. Besides, the MID50 with rats [4] is reported as >500 mg/kg. At CYP-450 2C19, the “inhibition of CYP-450 2C19” value is “inhibitor”. The sodium currents was 91±1 % of control in the series with sodium channels (holding potential −60 mV) and 98±1 % of control in the series on sodium channels (holding potential −90 mV). The “kainate (KA) receptor response” value in the series with kainate (KA) receptors is reported as 99±1 % of control. Also, in the series on mice, the “MID50 (median minimal motor impairment dose)” value turned out to be 158.98 mg/kg.
